Columns and labels:
[1] = target: Platelet-activating factor receptor (Homo sapiens, UniProt P25105); experiment: In vitro affinity for human PAF receptor on platelet membranes using [3H]PAF displacement.
[2] = target: T1, Polyunsaturated fatty acid 5-lipoxygenase (Rattus norvegicus, UniProt P12527); experiment: In vitro inhibition of 5-lipoxygenase in RBL-2H3 (Rat basophilic leukemia) cells.; assay type: functional, cell-based
T1 sequence (P12527 whole entry): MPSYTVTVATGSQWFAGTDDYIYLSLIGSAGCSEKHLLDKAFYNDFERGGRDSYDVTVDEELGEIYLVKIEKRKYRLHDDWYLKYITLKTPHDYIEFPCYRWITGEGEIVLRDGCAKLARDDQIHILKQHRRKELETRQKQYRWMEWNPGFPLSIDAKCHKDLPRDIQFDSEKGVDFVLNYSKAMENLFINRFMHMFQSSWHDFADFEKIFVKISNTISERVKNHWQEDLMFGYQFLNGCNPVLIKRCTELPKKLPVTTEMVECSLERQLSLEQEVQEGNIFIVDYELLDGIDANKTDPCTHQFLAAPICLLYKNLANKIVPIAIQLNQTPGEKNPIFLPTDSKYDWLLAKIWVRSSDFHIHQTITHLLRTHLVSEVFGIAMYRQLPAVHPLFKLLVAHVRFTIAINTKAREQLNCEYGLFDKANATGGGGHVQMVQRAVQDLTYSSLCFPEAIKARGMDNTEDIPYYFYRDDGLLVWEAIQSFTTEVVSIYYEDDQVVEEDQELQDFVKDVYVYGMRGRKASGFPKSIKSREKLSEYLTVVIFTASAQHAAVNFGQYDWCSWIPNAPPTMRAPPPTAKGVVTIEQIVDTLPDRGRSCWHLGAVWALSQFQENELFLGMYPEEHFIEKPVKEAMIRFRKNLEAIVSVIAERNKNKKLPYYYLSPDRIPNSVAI

Homo sapiens [3] = organism: Homo sapiens; experiment: Inhibition of human whole blood (HWB) LTB4 production in A-23,187-activated human whole blood by the enzyme immunoassay at a dose of 3 uM; assay type: functional
Mus musculus [4] = experiment: Ability to antagonize PAF-induced hemoconcentration PAF HTc in mice at a dose of 3 mg/kg; assay type: functional
Rattus norvegicus = experiment: Concentration of LTB4 was determined by enzyme immunoassay (Ex vivo) rat whole blood after intravenous administration of 5 mg/Kg; assay type: functional
Homo sapiens [5] = organism: Homo sapiens; experiment: Inhibition of human whole blood (HWB) LTB4 production in A-23,187-activated human whole blood by the enzyme immunoassay; assay type: functional
Mus musculus [6] = experiment: Arachidonic acid (AA)-induced ear edema in mice was determined by topically applying AA to ears of mice; assay type: functional

Platelet-activating factor receptor, sequence (P25105 whole entry): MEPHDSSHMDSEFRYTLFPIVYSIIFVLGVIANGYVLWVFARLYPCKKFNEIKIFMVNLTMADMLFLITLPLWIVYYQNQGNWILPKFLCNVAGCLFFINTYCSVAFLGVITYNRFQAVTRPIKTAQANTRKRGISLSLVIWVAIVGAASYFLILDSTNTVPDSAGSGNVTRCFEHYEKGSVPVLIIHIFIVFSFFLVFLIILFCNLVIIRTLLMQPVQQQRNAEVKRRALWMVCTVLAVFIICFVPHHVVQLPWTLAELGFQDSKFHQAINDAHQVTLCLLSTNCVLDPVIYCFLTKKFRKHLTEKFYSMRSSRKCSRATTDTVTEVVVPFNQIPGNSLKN

Row | IC50 [1] [nM] | IC50 [2] [nM] | Structure (SMILES) | further results
1 | 17 | 630 | CCCOc1c(NC(=O)N(C)O)cc(C2CCC(c3cc(OC)c(OC)c(OC)c3)O2)cc1OC (trans isomer) | 
2 | 1610 | 450 | CCCOc1c(NC(=O)N(O)C(C)CC)cc(C2CCC(c3cc(OC)c(OC)c(OC)c3)O2)cc1OC (cis isomer) | 
3 | 59 |  | CCCOc1cc([C@H]2CC[C@H](c3cc(OC)c(OC)c(OC)c3)O2)cc(N(O)C(=O)NCC)c1OCCC | 
4 |  |  | CC(c1cc2ccccc2s1)N(O)C(N)=O (stereo not given) [ZILEUTON] | inhibition at 3 µM (Homo sapiens [3]): 75%
5 | 300 |  | CCCOc1c(NC(=O)NO)cc(C2CCC(c3cc(OC)c(OC)c(OC)c3)O2)cc1OC (stereo in doubt) | 
6 | 17 | 1340 | CCCOc1cc([C@H]2CC[C@H](c3cc(OC)c(OC)c(OC)c3)O2)cc(N(CC)C(=O)N(O)CC)c1OCCC | 
7 | 858 | 2830 | CCCOc1c(NC(=O)N(O)C(C)C)cc(C2CCC(c3cc(OC)c(OC)c(OC)c3)O2)cc1OC (stereo in doubt) | 
8 | 8 | 150 | CCCOc1c(NC(=O)N(O)CC)cc(C2CCC(c3cc(OC)c(OC)c(OC)c3)O2)cc1OC (trans isomer) | inhibition at 3 µM (Homo sapiens [3]): 23%; inhibition in vivo at 3 mg/kg (Mus musculus [4]): 58%
9 | 278 |  | CCCOc1c(NC(=O)N(O)C2CCCCC2)cc(C2CCC(c3cc(OC)c(OC)c(OC)c3)O2)cc1OC (trans isomer) | 
10 | 514 |  | CCCOc1c(NC(=O)N(C)O)cc(C2CCC(c3cc(OC)c(OC)c(OC)c3)O2)cc1OC (cis isomer) | 
11 | 30 |  | CCCOc1c(NC(=O)NO)cc(C2CCC(c3cc(OC)c(OC)c(OC)c3)O2)cc1OC (trans isomer) | 
12 |  |  | CCCOc1c(NC(=O)N(O)CCC)cc(C2CCC(c3cc(OC)c(OC)c(OC)c3)O2)cc1OC (trans isomer) | IC50 ([2]; rbl-2h3): 10000 nM
13 | 26 | 2900 | CCCOc1c(NC(=O)N(O)C(C)(C)C)cc(C2CCC(c3cc(OC)c(OC)c(OC)c3)O2)cc1OC (trans isomer) | 
14 | 91 | 3000 | CCCNC(=O)N(O)c1cc([C@H]2CC[C@H](c3cc(OC)c(OC)c(OC)c3)O2)cc(OCCC)c1OCCC | 
15 | 456 |  | CCCOc1c(NC(=O)N(O)C(C)(C)C)cc(C2CCC(c3cc(OC)c(OC)c(OC)c3)O2)cc1OC (cis isomer) | 
16 | 1000 | 2540 | CCCOc1c(NC(=O)N(O)C2CCCCC2)cc(C2CCC(c3cc(OC)c(OC)c(OC)c3)O2)cc1OC (cis isomer) | 
17 | 585 | 8000 | CCCOc1c(NC(=O)N(O)Cc2ccccc2)cc(C2CCC(c3cc(OC)c(OC)c(OC)c3)O2)cc1OC (cis isomer) | 
18 | 58 | 3000 | CCCOc1c(NC(=O)N(O)C(C)C)cc(C2CCC(c3cc(OC)c(OC)c(OC)c3)O2)cc1OC (trans isomer) | 
19 | 423 | 2240 | CCCOc1c(NC(=O)N(O)Cc2ccccc2)cc(C2CCC(c3cc(OC)c(OC)c(OC)c3)O2)cc1OC (trans isomer) | 
20 | 68 | 3070 | CCCOc1cc([C@H]2CC[C@H](c3cc(OC)c(OC)c(OC)c3)O2)cc(N(CC)C(=O)N(C)O)c1OCCC | 
21 | 56 |  | CCCOc1cc([C@H]2CC[C@H](c3cc(OC)c(OC)c(OC)c3)O2)cc(N(CC)C(=O)N(O)CCC)c1OCCC | 
22 | 1310 | 500 | CCCCN(O)C(=O)Nc1cc(C2CCC(c3cc(OC)c(OC)c(OC)c3)O2)cc(OC)c1OCCC (cis isomer) | 
23 | 383 | 3000 | CCCOc1c(NC(=O)N(O)CC)cc(C2CCC(c3cc(OC)c(OC)c(OC)c3)O2)cc1OC (stereo in doubt) | 
24 | 33 | 420 | CCCCN(O)C(=O)Nc1cc(C2CCC(c3cc(OC)c(OC)c(OC)c3)O2)cc(OC)c1OCCC (stereo in doubt) | inhibition at 3 µM (Homo sapiens [3]): 64%; inhibition in vivo at 5 mg/kg (Rattus norvegicus): 67%; IC50 (Homo sapiens [5]): 1680 nM; inhibition in vivo at 3 mg/kg (Mus musculus [4]): 31%; Inhibition (Mus musculus [6]): 60%
25 |  | 10000 | CCCOc1c(NC(=O)N(O)CCC)cc(C2CCC(c3cc(OC)c(OC)c(OC)c3)O2)cc1OC (stereo in doubt) | 
26 | 25 | 600 | CCCOc1c(NC(=O)N(O)C(C)CC)cc(C2CCC(c3cc(OC)c(OC)c(OC)c3)O2)cc1OC (trans isomer) | inhibition at 3 µM (Homo sapiens [3]): 57%

Reference: ChEMBL document CHEMBL1128859, “Cmi-206: A potent dual platelet activating factor antagonist and 5-lipoxygenase inhibitor” (Bioorg Med Chem Lett, 1995)
